Measurements taken from patent publication US7638269B2, “Viral capsid assembly intermediates and methods of production” (priority 1997, dated 2009).
“Also recorded” adds a separate entry of the source.

Tests used:
[1] = system: immature HIV capsids (Gag Pr55); test: Cell-free translation and assembly of HIV capsids in wheat germ extract programmed with Gag transcript; format: biochemical; conditions: for Material in fractions corresponding to Final Capsid / Material in fractions corresponding to complex A / Material in fractions corresponding to complexes B/C: velocity sedimentation, apyrase added post-translationally, detergent cotranslationally
Description: Translation of the transcription products was carried out in wheat germ extract containing ^35S methionine (ICN Pharmaceuticals, Costa Mesa, Calif.). The wheat germ extract was prepared as described by Erickson and Blobel (1983) as modified below. Reactions were performed as previously described (Lingappa, J. R., et al., J. Cell. Biol. (1984) 125:99-111), except for modifications noted below.
A 25 microliter wheat germ transcription/translation reaction mixture contained: 5 microliters Gag transcript (prepared as described in transcription methods), 5 microliters wheat germ extract (prepared as described in wheat germ preparation; preferably using the high speed supernatant detailed in Example 4), 5 microliters 35-S Energy Mix 5× stock (Sigma Chemical Co., St. Louis, Mo.), 2.5 microliters Compensating Buffer (Sigma Chemical Co.), 1.0 microliter 40 mM MgAcetate (Sigma Chemical Co.), 2.0 microliters […] Myristoyl CoA (made up in 20 mM Tris Acetate, pH 7.6; Sigma Chemical Co.), 3.75 microliters 20 mM Tris Acetate buffer, […] (U.S. Biochemicals; Cleveland, Ohio), 0.25 microliter Creatine Kinase (4 mg/ml stock in 50% glycerol, 10 mM Tris Acetate; Boehringer Mannheim, Indianapolis, Ind.), 0.25 microliter bovine tRNA (10 mg/ml stock; Sigma Chemical Co.), and 0.25 microliter RNAse Inhibitor (20 units/50; Promega).
Myristoyl coenzyme A (MCoA; Sigma, St. Louis, Mo.) was added at a concentration of 10 micromolar at the start of translation when indicated. Translation reactions ranged in volume from 20 to 100 microliters and were incubated at 25° C. for 150 min. Some reactions were adjusted to a final concentration of the following agents at tunes indicated in the figures and specification: 0.2 μM emetine (Sigma); 1.0 units apyrase (Sigma) per mL translation; 0.002%, 0.1%, or 1.0% “NIKKOL”. Cell-free translation and assembly reactions were also carried out successfully in rabbit reticulocyte lysate prepared as described previously (Merrick, W. C., Methods Enzymol. 101:606-615 (1983)) or obtained from commercial suppliers (Promega, Madison, Wis.). In pulse-chase experiments, translation reactions contained ^35S cysteine (Amersham Life Sciences, Cleveland, Ohio) for radiolabeling. After 4 min translation reaction time, 3 mM unlabeled cysteine was added, and the reaction was continued at 25° C. for variable chase times as indicated in the experiments described herein.
Where indicated, wheat germ extract prepared as described in Example 1 was centrifuged at either 50,000 rpm for 21 min or 100,000 rpm for 30 min in a TLA 100 rotor (Beckman Instruments, Palo Alto, Calif.). The supernatant (high-speed supernatant, HSS) of the 50,000 rpm spin was used for cell-free translation and assembly reactions. The pellet of the 100,000 rpm spin (high speed pellet, HSP) was resuspended at a 5× concentration in buffer (25 mM Hepes pH 7.4, 4 mM MgAc, 100 mM KAc, 0.25M sucrose). Wheat germ extract adjusted to contain a concentration 0.5% “NIKKOL” was subjected to the same ultracentrifugation in parallel to generate the detergent treated high-speed pellet (HSPd). This pellet was washed twice with […] of the above non-detergent buffer in order to remove traces of detergent, and then resuspended as described above. Following treatment with emetine at […], 1.8 μL of HSP or HSPd was added to the […] cell-free reactions programmed with HSS. Control reactions were treated with the same volume of buffer at the same time. At the end of the 150 min incubation, reactions were separated into soluble and particulate fractions and analyzed as described above.
The cell-free translation/assembly system of the invention contains the components described in Part A, above. Example 1 provides details of an exemplary system derived from wheatgerm extract, which is capable of supporting translation and assembly of HIV capsids. Briefly, protein synthesis was initiated in the cell-free translation/assembly system by adding an mRNA that encodes Gag Pr55 protein. […]

HBV capsids (HBV core) = format: biochemical
Description: The radiolabeled translation products were analyzed for formation of HBV core multimers by rae sedimentation on 10-50% sucrose gradients at 200,000 g for 1 h. Following fractionation of the gradients, the migration of radiolabeled core proteins was determined using SDS-PAGE, Coomassie staining, and autoradiography. Under these conditions, unlabeled protein standards of less than 12S, such as catalase, migrated in the first three fractions. […] The first region, at the top of the gradient (7) corresponds to the position of monomeric and small oligomeric core polypeptides, while the second region, in the middle of the gradient (M), corresponds to the position of authentic capsids. The third region, in the pellet (P), represents very high molecular weight structures. The possibility that either the pellet or the middle fraction consists of completed chains not yet released from ribosomes was ruled out by treatment of the translation products after completion of synthesis with EDTA, which is known to disassemble ribosomes (Sabatini et al., 1966).
To address this, pellet material was isolated by fractionating the products of a 30-min translation of HBV core on a sucrose gradient and resuspending the pellet in buffer. The resuspended pellet was divided into equal aliquots and treated either with aphyase or with buffer for 90 min at 24° C.

HIV-1 particle formation = format: cell-based; conditions: Cos-1 cells
Description: Cos-1 cells were transfected using Gag expression plasmids pCMVRev and PSVGagRRE-R described in Simon et al, J. Virology, (1997) 71:1013-18. HP68 plasmids for mammalian expression were constructed by using PCR to insert the coding regions for WGHP68, amino acids 1-378, Nhe1/Xba1 of pCDNA 3.1 (Invitrogen). Coding regions of all constructs were sequenced. Cells were transfected using Gibco Lipofectamine (Cos-1) or Lipofectamine Plus (293T). All transfections used a constant amount of DNA (18 μg per 60 mm dish). Medium was changed 24 hours after transfection and harvest was performed 28 or 60 hours after transfection for immunofluorescence and immunoblotting respectively. For immunofluorescence, cells were fixed in paraformaldehyde, permeabilized with 1% triton, and incubated with mouse HIV-1 Gag antibody (1:50) and affinity-purified HuHP68 antiserum (1:2000), followed by Cy3- and Cy 2-coupled secondary (Jackson) (1:200). 178 cells were quantitated. For immunoblotting in FIG. 13 rat IgG was added to medium as a tracer at 10 μg/ml at the time of harvest, and cells were harvested in SDS sample buffer with boiling. For quantitation of immunoblotts, bands were compared to an immunoblot standard curve generated with known quantities of sample. […]

[2] = system: 750S immature HIV-1 capsids; test: HP68 immunodepletion-reconstitution of cell-free HIV-1 capsid assembly; format: biochemical
Description: WG extract (150 μl) was immunodepleted for 45 min at 4° C. with 100 μl beads coupled to antibody against WGHP68. Cell-free reactions (15 μl) were programmed (Lingappa et al., J. Cell Biol. 136:567-81 (1997)) using non-depleted WG or depleted WG. To some reactions containing depleted WG, purified WGHP68-GST or HuHP68-GST fusion protein or GST alone was added (2 μl of approx. 20 ng/μl) at the start of the reaction. After 3 hours at 26° C., NP40 was added to a final concentration of 1% and reactions underwent velocity sedimentation (5 ml, 15-60% sucrose gradients, Beckman MLS55 rotor: 45,000 rpm, 45 min). Thirty fractions, collected using a fractionator, were analyzed by SDS-PAGE and AR, followed by densitometry of Gag in each lane. For Proteinase K digestion, aliquots of fractions from the 500S and 750S regions of the gradient were collected and subjected to a 10 min incubation at RT with either no Proteinase K or 0.1 μg/ml Proteinase K. Digestion was terminated by adding SDS and freezing. Samples were analyzed by SDS-PAGE and AR. Graphs show average of three independent experiments (+/−SEM).
To generate purified HP68, WGHP68 and HuHP68 were subcloned into a pGEX vector (Pharmacia), to encode fusion proteins containing GST at the N-terminus. […] Concentration of fusion protein and GST in eluate was determined using the Coomassie Plus protein assay (Pierce). […]

[3] = emetine added after 50 min, incubated to 150 min

Chain of HBV capsids (HBV core) (P03146 whole entry): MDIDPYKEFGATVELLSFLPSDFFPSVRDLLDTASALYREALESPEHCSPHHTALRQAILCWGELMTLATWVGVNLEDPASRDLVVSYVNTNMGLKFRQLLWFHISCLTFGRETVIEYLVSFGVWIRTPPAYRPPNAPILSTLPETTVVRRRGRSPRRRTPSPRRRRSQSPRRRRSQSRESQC

Nc1ncnc2c1ncn2[C@@H]1O[C@H](COP(=O)(O)OP(=O)(O)NP(=O)(O)O)[C@@H](O)[C@H]1O [AMP-PNP]
reversal of the effect of ATP depletion on assembly ([1]; added after apyrase treatment): not reversed

O=C(O)CN(CCN(CC(=O)O)CC(=O)O)CC(=O)O [EDTA]
distribution of labeled core polypeptides in top, middle and pellet fractions (HBV capsids (HBV core); treatment of translation products after completion of synthesis, 10 mM): largely unaffected; also recorded: had no effect

CCCCCCCCCCCCCC(=O)SCCNC(=O)CCNC(=O)[C@H](O)C(C)(C)COP(=O)(O)OP(=O)(O)OC[C@H]1O[C@@H](n2cnc3c(N)ncnc32)[C@H](O)[C@@H]1OP(=O)(O)O [MCoA, Myristoyl Coenzyme A]
total amount of Pr55 synthesized ([1]; 10 μM MCoA): had no effect on the total amount of Pr55 synthesized
assembly into capsids ([1]; 10 μM MCoA added at 90 min, post-translational phase): very little assembly occurred

CCCCCCCCCCCCOCCOCCOCCOCCOCCOCCOCCOCCO [NIKKOL, octaethyleneglycol mono n-dodecyl ether]
capsid assembly ([1]; 0.002% added at start of translation, 10 μM MCoA): This effect was not observed
capsid assembly ([1]; 0.1% added at start of translation, 10 μM MCoA): largely abolished capsid assembly
amount of assembly ([1]; added after completion of the 150 min assembly reaction, up to 1.0%): did not diminish the amount of assembly
Gag polypeptide synthesis ([1]; concentration of 0.1%): had no effect on Gag polypeptide synthesis
assembly ([1]; emetine and 0.1% NIKKOL, post-translational phase 50 min into the reaction): assembly was dramatically reduced
Material in fractions corresponding to Final Capsid [1]: 189
Material in fractions corresponding to complex A [1]: 2656
Material in fractions corresponding to complexes B/C [1]: 6130

CC[C@H]1CN2CCc3cc(OC)c(OC)cc3[C@@H]2C[C@@H]1C[C@H]1NCCc2cc(OC)c(OC)cc21 [emetine]
effect on treatment of the isolated pellet with energy substrates or apyrase (HBV capsids (HBV core)): did not affect the results
proportion of capsid assembly [1, 3]: comparable to that of the untreated control
total Pr55 synthesis, of the control [1, 3]: 60%

apyrase
release of capsids from the isolated pellet (HBV capsids (HBV core); resuspended pellet of a 30-min translation, 90 min at 24° C.): results in release of completed capsids from the pellet
amount of assembly (capsid stability) ([1]; apyrase added after capsid assembly was completed): had no effect on the amount of assembly
total amount of Pr55 synthesis ([1]; apyrase added after emetine at 50 min): did not change the total amount of Pr55 synthesis
capsid assembly ([1]; apyrase added immediately after 0.2 μM emetine at 50 min, 150 min): dramatic reduction in capsid assembly
Material in fractions corresponding to Final Capsid [1]: 133
Material in fractions corresponding to complex A [1]: 2851
Material in fractions corresponding to complexes B/C [1]: 5999

B1: WGHP68-Tr1: 379 amino acid truncated form of wheat germ HP68, stop codon before the second nucleotide-binding domain (protein)
chain: MADRLTRIAIVSEDKCKPKKCRQECKKSCPVVKTGKLCIEVSPVAKLAFISEELCIGCGICVKKCPFDAIEIINLPKDLEKDTTHRYGPNTFKLHRLPVPRPGQVLGLVGTNGIGKSTALKVLAGKLKPNLGRFKNPPDWQEILTYFRGSELQNYFTRILEDNLKAIIKPQYVDHIPKAVQGNVGQVLEQKDERDMKNELCVDLELNQVIDRNVGDLSGGELQRFAIAVVAVQSAEIYMFDEPSSYLDVKQRLKAARVIRSLLRSNSYVIVVEHDLSVLDYLSDFICCLYGKPGAYGVVTLPFSVREGINIFLAGFVPTENLRFRDESLTFKIAETQESAEEVATYQRYKYPTMSKTQGNFKLSVVEGEFTDSQIVVM
Gag and actin levels in cell lysates (HIV-1 particle formation): remained unchanged
toxicity to cells (HIV-1 particle formation): not toxic to cells

B2: WGHP68-GST: fusion protein of wheat germ HP68 with GST at the N-terminus (protein)
chain: MADRLTRIAIVSEDKCKPKKCRQECKKSCPVVKTGKLCIEVSPVAKLAFISEELCIGCGICVKKCPFDAIEIINLPKDLEKDTTHRYGPNTFKLHRLPVPRPGQVLGLVGTNGIGKSTALKVLAGKLKPNLGRFKNPPDWQEILTYFRGSELQNYFTRILEDNLKAIIKPQYVDHIPKAVQGNVGQVLEQKDERDMKNELCVDLELNQVIDRNVGDLSGGELQRFAIAVVAVQSAEIYMFDEPSSYLDVKQRLKAARVIRSLLRSNSYVIVVEHDLSVLDYLSDFICCLYGKPGAYGVVTLPFSVREGINIFLAGFVPTENLRFRDESLTFKIAETQESAEEVATYQRYKYPTMSKTQGNFKLSVVEGEFTDSQIVVMLGENGTGKTTFIRMLAGLLKPDTMEGTEVEIPEFNVSYKPQKISPKFQHPVRHLLHSKIRDSYTHPQFVSDVMKPLQIEQLMDQEVINLSGGELQRVALCLCLGKPADIYLIDEPSAYLDSEQRIVASKVIKRFILHAKKTAFIVEHDFIMATYLADKVIVYEGLASIDCTANAPQSLVSGMNKFLSHLDITFRRDPTNYRPRINKLESTKDREQKNAGSYYYLDD
modifications: left off: a dimerising Fc or GST
notes: fusion protein of wheat germ HP68 with GST at the N-terminus
total amount of radiolabeled Gag synthesized ([2]; added to HP68 immunodepleted WG extract): had no effect
increase in the amount of 750S capsid ([2]; added to HP68 immunodepleted WG extract programmed with HIV-1 Gag transcript): 3 fold
